In one assay the test system is Aβ42 production. Kind of assay: Inhibition of Aβ42 production in APP-transfected cells, ELISA (Example 2). The format is cell-based. The settings on record: 4 hours, compared with total Aβ, FIG. 2. From the text: (§1) Cell Lines, Compound Treatments, and ELISAs. Cell lines were Chinese hamster ovary (CHO) and SK-N-SH human neuroblastoma cells stably transfected with the 751- or 695-amino acid splicing variants of APP, respectively, and the neo gene, and human embryonic kidney (HEK) 293 cells carrying the same genes (APP695 plus neo) but with the K595N/M596L (“Swedish”) double mutation of APP. Xia W et al., J Biol Chem 272:7977-7982 (1997); Citron M et al., Proc Natl Acad Sci USA 93:13170-13175 (1996). Cells were grown to confluence in Dulbecco's modified Eagle's medium containing 200 μg/ml G418 (Gibco BRL). Stock concentrations of the (hydroxyethyl)urea compounds of the invention in DMSO were added to media to reach the final concentrations with 1% DMSO. Positive controls contained 1% DMSO alone. […] The reporter antibody was detected using 3,3′,5,5′-tetramethylbenzidine (Pierce), measuring at 455 nm for calculating Aβ levels and at 595 nm for normalization.
(§2) Compound III-20 (shown above) or compound III-24 (identical to III-20 except R4 is L-phenylalanine O-methyl ester) was added over a range of concentrations (0.1-100 μM) to APP-transfected cells in culture as described. […] After 4 hours in culture, supernatants from test and control cultures were assayed by ELISA specific for Aβ peptides, and results were analyzed as percent total or specific Aβ produced compared to control.

The subject of assay [1] is total Aβ peptide production. In words: Inhibition of total Aβ peptide production in APP-transfected cells, ELISA (Example 2). To be noted: 4 hours in culture, FIG. 1, read-out: concentration for 50 percent inhibition of total Aβ peptide production. In kind it is cell-based.
Source text: as §1, §2

The test system of assay [2] is Aβ production in APP751-plus neo-transfected CHO cells. Kind of assay: Inhibition of Aβ production in APP751-plus neo-transfected CHO cells, ELISA (Example 3). In kind it is cell-based, Chinese hamster. To be noted: Cricetulus griseus, 4 hours, 0.005 to 100 μM, 1% DMSO. The source says: Cell Lines, Compound Treatments, and ELISAs. Cell lines were Chinese hamster ovary (CHO) and SK-N-SH human neuroblastoma cells stably transfected with the 751- or 695-amino acid splicing variants of APP, respectively, and the neo gene, and human embryonic kidney (HEK) 293 cells carrying the same genes (APP695 plus neo) but with the K595N/M596L (“Swedish”) double mutation of APP. Xia W et al., J Biol Chem 272:7977-7982 (1997); Citron M et al., Proc Natl Acad Sci USA 93:13170-13175 (1996). Cells were grown to confluence in Dulbecco's modified Eagle's medium containing 200 μg/ml G418 (Gibco BRL). Stock concentrations of the (hydroxyethyl)urea compounds of the invention in DMSO were added to media to reach the final concentrations with 1% DMSO. Positive controls contained 1% DMSO alone. […] The reporter antibody was detected using 3,3′,5,5′-tetramethylbenzidine (Pierce), measuring at 455 nm for calculating Aβ levels and at 595 nm for normalization. […]
Transfected CHO cells were prepared and maintained as described in Example 2. […] Results were plotted as percent control Aβ produced versus (hydroxyethyl)urea compound concentration (μM), and (hydroxyethyl)urea compound concentrations at which production was inhibited by 50 percent (IC50) were determined.

In the case of `COC(=O)[C@H](CC(C)C)NC(=O)[C@H](CC(C)C)NC(=O)N(Cc1ccccc1)C[C@@H](O)[C@H](Cc1ccccc1)NC(=O)OC(C)(C)C` [FΨFLL], the “inhibitory effect on the production of Aβ42” value in the assay on Aβ42 production is given as “closely followed the inhibition by compound III-20 of total Aβ production”. For the same compound, the values for the IC50 in assay [1] and in assay [2] were approximately 1 µM and 0.5 µM, respectively.
